Experiments:
[1] = system: passive cutaneous anaphylaxis (PCA); test: Anti-passive cutaneous anaphylaxis (PCA) activity in rats, 48-hours PCA (TEST EXAMPLE 1); type: in vivo, rat (Wistar strain male); settings: Rattus norvegicus
Description: Anti-passive cutaneous anaphylaxis (PCA) activity in rats
(§1) Wistar strain male rats (6 weeks old) were purchased from Shizuoka Experimental Animal Agricultural Cooperative (Japan), habituated to a breeding environment for 1 week before using for the experiment.
(2) Preparation of antiserum
Preparation of antiserum was carried out according to the method described in J. Immunol. 106, 1002-1011 (1971).
(§2) Thus, Ascaris suum extract was dinitrophenylated (DNP-As) and infused subcutaneously together with dead Bordetella pertussis at four sites on the foot-pad. After 5 days, the rats were boostered with DNP-As (1 mg) at the dosal muscle. After 3 days, bloods samples were collected and serum was separated which was used as anti DNP-As antiserum. The titer of the antiserum was measured by rats 48-hours PCA and found to be 1:200.
Rats were sensitized with 35 times dilution of anti DNP-As antiserum administered at two sites in the pre-clipped right dosal skin. After 48 hours, DNP-As (500 μg in 0.5% Evans blue-physiological saline (1 ml) was administered into caudal vein to elicit the reaction. Then, 30 minutes later, the animals were decapitated, the dosal skin was peeled, two sensitized areas as well as one control area were cut off and analyzed for Evans blue exudation which was used as an indicative of the reaction according to the method disclosed in Microbiol. Immunol. 22, 89-101 (1978). Thus, cut skins were treated with 1N-NaOH (1 ml) and incubated at 37° C. for 16 hours to dissolve the skin tissue. A mixed solution (9 ml) of 0.6N-phosphoric acid-acetone (5:13) was added and the mixture was centrifuged (300 r.p.m) for 15 minutes. The supernatant was assayed for absorption at 620 nm and the exudation of Evans blue was determined. Test compounds (I) were administered either into caudal vein 5 minutes before the elicitation of the reaction, or perorally as a suspension in 0.5% 1 hour before the elicitation.

[2] = system: passive cutaneous anaphylaxis (PCA); test: Anti-passive cutaneous anaphylaxis (PCA) activity in rats, P.O. only (TEST EXAMPLE 2); type: in vivo, rat (Wistar strain male); settings: 1 hour before elicitation
Description: as §1, §2
Rats were sensitized with 35 times dilution of anti DNP-As antiserum administered at two sites in the pre-clipped right dosal skin. […] The supernatant was assayed for absorption at 620 nm and the exudation of Evans blue was determined. […]

[3] = iv, I.V. (caudal vein), 5 minutes before elicitation
[4] = po, P.O., 1 hour before elicitation

| SMILES | inhibition in vivo at 2 mg/kg [1, 3] [%] | further results |
| --- | --- | --- |
| COc1ccccc1-c1nc(C(=O)Nc2nnn[nH]2)cs1 [Compound I-2] | 99 | inhibition in vivo at 50 mg/kg [1, 4]: 60% |
| COc1ccc(/C=C/C(=O)Nc2ccccc2C(=O)O)cc1OC [Tranilast, tranilast, reference compound] | – | inhibition in vivo at 50 mg/kg [1, 4]: 0%; Inhibition ([2]; 50 mg/kg): 0% |
| Cc1ccc(-c2nc(C(=O)Nc3nnn[nH]3)cs2)cc1 [Compound I-7] | – | inhibition in vivo at 30 mg/kg [1, 4]: 76% |
| O=C(Nc1nnn[nH]1)c1csc(-c2cc([N+](=O)[O-])ccc2O)n1 [Compound I-21, 2-(2-hydroxy-5-nitrophenyl)-N-(1H-tetrazole-5-yl)-4-thiazolecarboxamide] | 98 | – |
| Cc1ccc(-c2nc(C(=O)Nc3nnn[nH]3)c(C)s2)s1 [Compound I-42, 2-(5-Methyl-2-thienyl)-5-methyl-N-(1H-tetrazole-5-yl)-4-thiazolecarboxamide] | – | Inhibition ([2]; 25 mg/kg): 73% |
| O=C(Nc1nnn[nH]1)c1csc(-c2ccccc2O)n1 [Compound I-1] | 99 | inhibition in vivo at 0.5 mg/kg ([1]; iv, I.V. (caudal vein), 0.5 mg/kg, 5 minutes before elicitation): 67%; inhibition in vivo at 1.5 mg/kg ([1]; iv, I.V. (caudal vein), 1.5 mg/kg, 5 minutes before elicitation): 98% |
| O=C(Nc1nnn[nH]1)c1csc(-c2cc(Cl)ccc2O)n1 [Compound I-19, 2-(5-chloro-2-hydroxyphenyl)-N-(1H-tetrazole-5-yl)-4-thiazolecarboxamide] | 97 | – |
| Cc1ccc(-c2nc(C(=O)Nc3nnn[nH]3)c(C)s2)cc1 [Compound I-27, 2-(4-methylphenyl)-5-methyl-N-(1H-tetrazole-5-yl)-4-thiazolecarboxamide] | – | inhibition in vivo at 25 mg/kg ([1]; po, P.O., 25 mg/kg, 1 hour before elicitation): 91% |
| O=C(Nc1nnn[nH]1)c1csc(-c2cccc(C(F)(F)F)c2)n1 [Compound I-17, 2-(3-trifluoromethylphenyl)-N-(1H-tetrazole-5-yl)-4-thiazolecarboxamide] | 98 | – |
| Cc1ccc(O)c(-c2nc(C(=O)Nc3nnn[nH]3)cs2)c1 [Compound I-22, 2-(2-hydroxy-5-methylphenyl)-N-(1H-tetrazole-5-yl)-4-thiazolecarboxamide] | 81 | – |
| O=C(O)c1cc(=O)c2c(OCC(O)COc3cccc4oc(C(=O)O)cc(=O)c34)cccc2o1 [DSCG, disodium cromoglicate, reference compound] | – | inhibition in vivo at 5 mg/kg ([1]; iv, I.V. (caudal vein), 5 mg/kg, 5 minutes before elicitation): 92% |
| COc1cccc(-c2nc(C(=O)Nc3nnn[nH]3)cs2)c1 [Compound I-3, 2-(3-methoxyphenyl)-N-(1H-tetrazole-5-yl)-4-thiazolecarboxamide] | 99 | inhibition in vivo at 30 mg/kg [1, 4]: 77% |
| COc1ccc(O)c(-c2nc(C(=O)Nc3nnn[nH]3)cs2)c1 [Compound I-20, 2-(2-hydroxy-5-methoxyphenyl)-N-(1H-tetrazole-5-yl)-4-thiazolecarboxamide] | 93 | – |
| O=C(Nc1nnn[nH]1)c1csc(-c2ccccc2OCc2ccccc2)n1 [Compound I-23, 2-(2-benzyloxyphenyl)-N-(1H-tetrazole-5-yl)-4-thiazolecarboxamide] | 98 | – |
| COc1ccc(-c2nc(C(=O)Nc3nnn[nH]3)cs2)cc1 [Compound I-4] | 98 | – |

Reference: US4879295A, “N-tetrazolyl thiazolecarboxyamide derivatives and their use” (Sawai Pharmaceutical Co., Ltd., priority 1986, dated 1989)
